Assay results reported in US20220402882A1, “HERBICIDAL COMPOUNDS” (SYNGENTA CROP PROTECTION AG, priority 2019, published 2022).

Tests used:
Type in all cases: in vivo
Conditions in all cases: 125 g/h, evaluated after 13 days
[1] = tested on: Amaranthus retoflexus (AMARE); assay: Post-emergence glasshouse herbicide test
Description: (§1) Seeds of a variety of test species are sown in standard soil in pots (Lolium perenne (LOLPE), Amaranthus retoflexus (AMARE), Abutilon theophrasti (ABUTH), Setaria faberi (SETFA), Echinochloa crus-galli (ECHCG), Ipomoea hederacea (IPOHE)). After cultivation for one day (pre-emergence) or after 8 days cultivation (post-emergence) under controlled conditions in a glasshouse (at 24/16° C., day/night; 14 hours light; 65% humidity), the plants are sprayed with an aqueous spray solution derived from the formulation of the technical active ingredient in acetone/water (50:50) solution containing 0.5% Tween™ 20 (polyoxyethelyene sorbitan monolaurate, CAS RN 9005-64-5). Compounds are applied at 125 g/h unless otherwise indicated. The test plants are then grown in a glasshouse under controlled conditions in a glasshouse (at 24/16° C., day/night; 14 hours light; 65% humidity) and watered twice daily. After 13 days for pre- and post-emergence, the test is evaluated for the percentage damage caused to the plant. The biological activities are shown in the following table on a five-point scale (5=80-100%; 4=60-79%; 3=40-59%; 2=20-39%; 1=0-19%).

[2] = tested on: Ipomoea hederacea (IPOHE); assay: Post-emergence glasshouse herbicide test
Description: as §1

[3] = tested on: Abutilon theophrasti (ABUTH); assay: Post-emergence glasshouse herbicide test
Description: as §1

Setaria faberi (SETFA) [4] = assay: Post-emergence glasshouse herbicide test
Description: as §1

[5] = tested on: Echinochloa crus-galli (ECHCG); assay: Post-emergence glasshouse herbicide test
Description: as §1

[6] = tested on: Amaranthus retoflexus (AMARE); assay: Pre-emergence glasshouse herbicide test
Description: as §1

[7] = tested on: Ipomoea hederacea (IPOHE); assay: Pre-emergence glasshouse herbicide test
Description: as §1

[8] = tested on: Abutilon theophrasti (ABUTH); assay: Pre-emergence glasshouse herbicide test
Description: as §1

Setaria faberi (SETFA) [9] = assay: Pre-emergence glasshouse herbicide test
Description: as §1

[10] = tested on: Echinochloa crus-galli (ECHCG); assay: Pre-emergence glasshouse herbicide test
Description: as §1

SMILES | percentage damage caused to the plant, AMARE [1] | percentage damage caused to the plant, IPOHE [2] | percentage damage caused to the plant, ABUTH [3] | percentage damage caused to the plant, SETFA (Setaria faberi (SETFA) [4]) | percentage damage caused to the plant, ECHCG [5] | percentage damage caused to the plant, AMARE [6] | percentage damage caused to the plant, IPOHE [7] | percentage damage caused to the plant, ABUTH [8] | percentage damage caused to the plant, SETFA (Setaria faberi (SETFA) [9]) | percentage damage caused to the plant, ECHCG [10]
CCS(=O)(=O)c1c(CC(F)(F)F)ccc(C(=O)Nc2nnnn2C)c1Cl [Compound 1.022] | 4 (4=60-79%) | 5 (5=80-100%) | 5 (5=80-100%) | 5 (5=80-100%) | 5 (5=80-100%) | 5 (5=80-100%) | 5 (5=80-100%) | 5 (5=80-100%) | 5 (5=80-100%) | 5 (5=80-100%)
CCSc1c(OCC(F)(F)F)ccc(C(=O)Nc2nnnn2C)c1Cl [Compound 1.037] | 5 (5=80-100%) | 3 (3=40-59%) | 5 (5=80-100%) | 5 (5=80-100%) | 5 (5=80-100%) | 5 (5=80-100%) | 1 (1=0-19%) | 3 (3=40-59%) | 3 (3=40-59%) | 4 (4=60-79%)
Cn1nnnc1NC(=O)c1ccc(OCC(F)F)c([S+](C)[O-])c1Cl (stereo not shown) [Compound 1.034] | 4 (4=60-79%) | 3 (3=40-59%) | 4 (4=60-79%) | 4 (4=60-79%) | 5 (5=80-100%) | 4 (4=60-79%) | 2 (2=20-39%) | 3 (3=40-59%) | 4 (4=60-79%) | 4 (4=60-79%)
CC[S+]([O-])c1c(OC(F)F)ccc(C(=O)Nc2nnnn2C)c1Cl (stereo not shown) [Compound 1.026] | 5 (5=80-100%) | 5 (5=80-100%) | 5 (5=80-100%) | 5 (5=80-100%) | 5 (5=80-100%) | 5 (5=80-100%) | 5 (5=80-100%) | 5 (5=80-100%) | 5 (5=80-100%) | 5 (5=80-100%)
CCn1nnnc1NC(=O)c1ccc(OC(F)(F)F)c(S(=O)(=O)CC)c1Cl [Compound 1.047] | 5 (5=80-100%) | 5 (5=80-100%) | 5 (5=80-100%) | 5 (5=80-100%) | 5 (5=80-100%) | 5 (5=80-100%) | 5 (5=80-100%) | 5 (5=80-100%) | 5 (5=80-100%) | 5 (5=80-100%)
CCSc1c(OC(F)(F)F)ccc(C(=O)Nc2nnnn2C)c1Cl [Compound 1.021] | 4 (4=60-79%) | 5 (5=80-100%) | 5 (5=80-100%) | 5 (5=80-100%) | 5 (5=80-100%) | 5 (5=80-100%) | 3 (3=40-59%) | 4 (4=60-79%) | 5 (5=80-100%) | 5 (5=80-100%)
CCS(=O)(=O)c1c(OC(F)F)ccc(C(=O)Nc2nnc(C)o2)c1Cl [Compound 2.013] | 5 (5=80-100%) | 4 (4=60-79%) | 5 (5=80-100%) | 5 (5=80-100%) | 5 (5=80-100%) | 5 (5=80-100%) | 4 (4=60-79%) | 5 (5=80-100%) | 5 (5=80-100%) | 5 (5=80-100%)
